Patent US11279736B2, “Conformationally-preorganized, MiniPEG-containing gamma-peptide nucleic acids” (CARNEGIE MELLON UNIVERSITY, priority 2011, dated 2022)
[RMPγPNA-N] = PNA unit with R-MP-gamma backbone modification (N: the base)

Assays:
complementary DNA strand = assay: UV-melting / van't Hoff analysis of PNA-DNA hybrid duplexes; type: binding; conditions: PNA-DNA duplex; for −ΔG° / −ΔH° / −ΔTS°: averages of three trials
Method: (§1) FIGS. 2A-2B illustrate UV-melting profiles of PNA-DNA (FIG. 2A) and PNA-RNA (FIG. 2B) hybrid duplexes at a strand concentration of […] each in 10 mM sodium phosphate buffer at pH 7.4. While both the heating and cooling runs were performed because they both have nearly identical profiles UV-melting for only the heating runs are shown.
UV-melting experiments were performed to determine the effect of MP on the thermal stability of PNA oligomers following hybridization to DNA or an RNA. FIG. 3A illustrates that the incorporation of a single miniPEG side-chain stabilized a PNA-DNA duplex by 4° C. […] However, increase in thermal stability tapers off to a value of about 2.3° C. per unit for the fully-modified oligomer, that is an oligomer made up of R-MP-γPNA groups only (e.g., PNA5).
(§2) Further insights related to the contribution of miniPEG to the stability of the PNA-DNA duplex was obtained from van′t Hoff analysis. Data in Table 2 show the thermodynamic parameters associated with hybridization of PNA1 through 5 to a complementary DNA or RNA strand.

[1] = Temperature-dependent CD measurements of PNA oligomers; type: physicochemical; conditions: 80° C.; 5 μM oligomer, 10 mM sodium phosphate buffer pH 7.4
Method: FIG. 1A illustrates CD spectra of PNA5 and PNA2 (Inset) as a function of temperature. Melting transition (Tm) of PNA2 through 5 as determined by CD, monitored at 260 nm. The oligomer concentration was 5 μM, prepared in 10 mM sodium phosphate buffer at pH 7.4.

[2] = test system: immobilized complementary DNA; assay: Surface plasmon resonance (SPR) hybridization kinetics; type: binding; conditions: for association rate constant ka / dissociation rate constant kd: 1:1 binding model; for dissociation rate constant kd: † values approach limits of detection
Method: FIG. 4 illustrates surface plamon resonance (SPR) sensorgrams (solid black lines) and fits (dotted lines) for hybridization of PNA probes to immobilized complementary DNA. Solutions contained 30 nM PNA. Error bars at t=420 sec illustrate standard deviations for three separate trials.
Surface plasmon resonance (SPR) analysis is used to study the hybridization kinetics of ^R-MPγPNA-DNA and ^R-MPγPNA-RNA duplexes. Briefly, SPR was performed as follows. According to one embodiment, the PNA probe was immobilized to the chip while the DNA target was captured from solution. In another embodiment, a biotinylated version of the DNA target is immobilized on a streptavidin-conjugated, carboxymethylated dextran chip at a relatively low surface density (ca. 100 response units) of DNA targets to limit mass transport effects on the association kinetics. Solutions containing 10-50 nM PNA oligomers are allowed to flow over the chip for about 420 seconds, at which point the flow is switched to a PNA-free buffer to allow net dissociation of the hybridized PNA.

complementary RNA strand = assay: UV-melting / van't Hoff analysis of PNA-RNA hybrid duplexes; type: binding
Method: as §1
A similar pattern is observed for a R-MP-γPNA-RNA duplex, but the observed increase in thermal stability is lower for a R-MP-γPNA-RNA duplex as compared to a R-MP-γPNA-DNA duplex (FIG. 3B). The enhancement in thermal stability of a R-MP-γPNA-RNA duplex is only 3° C. for the first R-MP-γPNA-monomer that is incorporated into the PNA oligomer and this gain in thermal stability reduces to about 1.2° C. per R-MP-γPNA monomer for an oligomer made entirely R-MP-γPNA (PNA5). In contrast the gain in thermal stability is about 2.3° C./unit for R-MP-γPNA-DNA duplexes.
as §2

[3] = test system: RNA: 3′-CGUACAXACU-5, X = A, C, G, U (SEQ ID NO: 12); assay: Sequence mismatch discrimination, thermal stability of PNA-RNA duplexes; type: binding
Method: (§3) CD, NMR, and X-ray data have shown that γPNAs derived from L-amino acids adopt a right-handed helix, and that the helix becomes more rigid as more γ-chiral units are added in the backbone. One would therefore expect a fully-modified PNA5 to hybridize to DNA and RNA targets with greater sequence selectivity than PNA1. To verify this hypothesis, thermal stabilities of PNA5-DNA and PNA5-RNA duplexes containing perfectly-matched (PM) and single-base mismatched (MM) targets were determined and compared to those from an earlier study with PNA1-DNA and PNA1-RNA duplexes. […] The ΔTm ranges from −17 to −21° C. for PNA5-DNA and −16 to −20° C. for PNA5-RNA containing a single-base mismatch (X=C, G, T), as compared to −10 to −14° C. for PNA1-DNA and −11 to −18° C. for PNA1-RNA duplex (Table 4). The level of sequence discrimination is greater for PNA5-DNA than for PNA1-DNA, and similar, if not slightly better, for PNA5-RNA as compared to PNA1-RNA.

[4] = test system: DNA: 3′-[…]-5, X = A, C, G, T (SEQ ID NO: 11); assay: Sequence mismatch discrimination, thermal stability of PNA-DNA duplexes; type: binding
Method: as §3

[5] = PNA-RNA duplex, 298 K, UV-melting curve fitting

H-GCATGTTTGA-NH2 [PNA2] (PNA; 1 R-MP-gamma unit; C-terminal amide; modified_base (6)..(6) R-MP-gamma-backbone modified nucleotide)
Kd (complementary DNA strand; 298 K, UV melting): 0.32 nM | −ΔG° (complementary DNA strand; 298 K): 12.9 ± 0.24 kcal/mol | −ΔH° (complementary DNA strand; 298 K): 76.2 ± 4.3 kcal/mol | −ΔTS° (complementary DNA strand; 298 K): 62.9 ± 3.82 kcal/mol | CD profile / base-stacking at high temperature [1]: completely denatured | association kinetics relative to the unmodified PNA ([2]; SPR, 30 nM PNA): approximately twice as fast | association rate constant ka ([2]; SPR): 970000 M⁻¹ s⁻¹ | dissociation rate constant kd ([2]; SPR): 0.00041 s⁻¹ | Kd ([2]; SPR, ratio of dissociation and association rate constants, † values uncertain, read-out: equilibrium dissociation constant Kd): 0.42 nM | Kd (complementary RNA strand; [5]): 0.0012 nM | −ΔG° (complementary RNA strand; [5]): 16.3 kcal/mol | −ΔH° (complementary RNA strand; [5]): 79.6 kcal/mol | −ΔTS° (complementary RNA strand; [5]): 55.4 kcal/mol

H-GCATGTTTGA-NH2 [PNA5] (all [RMPγPNA-N], methylation of C not given here; C-terminal amide)
increase in thermal stability per miniPEG unit (complementary DNA strand; UV-melting): about 2.3 °C per unit | −ΔG° (complementary DNA strand; 298 K): 18.6 ± 0.48 kcal/mol | −ΔH° (complementary DNA strand; 298 K): 88.9 ± 2.63 kcal/mol | −ΔTS° (complementary DNA strand; 298 K): 70.3 ± 2.39 kcal/mol | Tm ([3]; C<>T mismatch): 48 °C | ΔTm between the perfect match and mismatch ([3]; C<>T mismatch): (−20) ° C. | Tm ([3]; G<>T mismatch): 52 °C | ΔTm between the perfect match and mismatch ([3]; G<>T mismatch): (−16) ° C. | Tm ([3]; T(U)<>T mismatch): 48 °C | ΔTm between the perfect match and mismatch ([3]; T(U)<>T mismatch): (−20) ° C. | Tm ([3]; X = A (A-T perfect match)): 68 °C | ΔTm, single-base mismatch (X=C, G, T) ([3]; range over mismatches): −16 to −20 °C | CD profile / base-stacking at high temperature [1]: distinct CD profile | Tm ([4]; C<>T mismatch): 47 °C | ΔTm between the perfect match and mismatch ([4]; C<>T mismatch): (−21) ° C. | Tm ([4]; G<>T mismatch): 48 °C | ΔTm between the perfect match and mismatch ([4]; G<>T mismatch): (−20) ° C. | Tm ([4]; T(U)<>T mismatch): 51 °C | ΔTm between the perfect match and mismatch ([4]; T(U)<>T mismatch): (−17) ° C. | Tm ([4]; X = A (A-T perfect match)): 68 °C | ΔTm, single-base mismatch (X=C, G, T) ([4]; range over mismatches): −17 to −21 °C | association rate constant ka ([2]; SPR): 800000 M⁻¹ s⁻¹ | dissociation rate constant kd ([2]; SPR): 0.4 × 10^−4 ^† s^−1 | SPR-derived Kd relative to Kd determined by UV melting experiments ([2]; Table 3 versus Table 2, DNA target): 1200 fold | gain in thermal stability per R-MP-γPNA monomer (complementary RNA strand; PNA-RNA duplex, UV-melting): about 1.2 °C per R-MP-γPNA monomer | −ΔG° (complementary RNA strand; [5]): 18.6 kcal/mol | −ΔH° (complementary RNA strand; [5]): 87.2 kcal/mol | −ΔTS° (complementary RNA strand; [5]): 68.6 kcal/mol | differential Tm (ΔTm), RNA versus DNA binding (complementary RNA strand; duplex with RNA compared to duplex with DNA): identical thermal stability
